Assay results as given in patent US20230374017A1, “COMPOSITIONS AND METHODS FOR ACTIVATING PYRUVATE KINASE” (The Regents of the University of Michigan, priority 2020, published 2023).

What was measured:
photoreceptors / retina = settings: cited from earlier work
[1] = biological target: T1, pyruvate kinase activity, 661W cell line (Mus musculus, UniProt P52480); assay: Pyruvate kinase activity in 661W cell lysates after 2 hours treatment; assay type: cell-based; settings: 661W cells, 2 hours incubation, activity normalized to total protein; for Emax: read-out: Max Activation (cell)
T1 construct: endogenous in cells; host or cells: 661W cell line
T1 sequence (P52480 whole entry): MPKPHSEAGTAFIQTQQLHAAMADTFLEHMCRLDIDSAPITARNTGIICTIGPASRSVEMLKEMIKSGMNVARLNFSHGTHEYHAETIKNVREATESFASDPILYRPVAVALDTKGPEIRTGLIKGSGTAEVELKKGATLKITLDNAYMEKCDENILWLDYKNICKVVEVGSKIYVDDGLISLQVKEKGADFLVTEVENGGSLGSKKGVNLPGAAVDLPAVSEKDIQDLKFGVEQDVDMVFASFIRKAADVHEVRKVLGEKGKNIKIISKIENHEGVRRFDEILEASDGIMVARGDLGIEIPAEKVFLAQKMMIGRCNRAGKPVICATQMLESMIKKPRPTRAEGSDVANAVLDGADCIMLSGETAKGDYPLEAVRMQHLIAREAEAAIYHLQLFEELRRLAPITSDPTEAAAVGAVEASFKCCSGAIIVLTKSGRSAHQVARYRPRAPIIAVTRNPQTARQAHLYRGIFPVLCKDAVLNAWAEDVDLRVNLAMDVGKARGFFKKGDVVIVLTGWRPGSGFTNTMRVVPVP
Protocol: Cell culture. For 661W cell line experiments, media was replaced prior to the start of treatment with DMSO or ML-265. Cells were incubated with DMSO or different concentrations of ML-265 for 2 hours. Cells were lysed and homogenized in RIPA Lysis and Extraction Buffer (Catalog number: 89900, Life Technologies Corporation, Grand Island, NY) with protease inhibitors (Complete-Mini, Roche Diagnostics, Indianapolis, IN) and cellular debris was removed by centrifugation at 10,000 rpm for 10 minutes. Ten microliters of the supernatant was used to assess pyruvate kinase activity, and the activity was normalized to total protein content as previously described.

human recombinant PKM2 = biological target: T2, human recombinant PKM2 (Homo sapiens, UniProt P14618); assay: Pyruvate kinase activity enzyme assay, recombinant enzyme (LDH-coupled, NADH depletion at 340 nm); assay type: biochemical; settings: normalized to DMSO-treated PKM2 activity; for EC50: recombinant PKM2 20 nM; for Emax / Max Activation: recombinant PKM2; for Emax: read-out: Max Activation
T2 construct: purchased Sigma SAE0021
T2 sequence (P14618 whole entry): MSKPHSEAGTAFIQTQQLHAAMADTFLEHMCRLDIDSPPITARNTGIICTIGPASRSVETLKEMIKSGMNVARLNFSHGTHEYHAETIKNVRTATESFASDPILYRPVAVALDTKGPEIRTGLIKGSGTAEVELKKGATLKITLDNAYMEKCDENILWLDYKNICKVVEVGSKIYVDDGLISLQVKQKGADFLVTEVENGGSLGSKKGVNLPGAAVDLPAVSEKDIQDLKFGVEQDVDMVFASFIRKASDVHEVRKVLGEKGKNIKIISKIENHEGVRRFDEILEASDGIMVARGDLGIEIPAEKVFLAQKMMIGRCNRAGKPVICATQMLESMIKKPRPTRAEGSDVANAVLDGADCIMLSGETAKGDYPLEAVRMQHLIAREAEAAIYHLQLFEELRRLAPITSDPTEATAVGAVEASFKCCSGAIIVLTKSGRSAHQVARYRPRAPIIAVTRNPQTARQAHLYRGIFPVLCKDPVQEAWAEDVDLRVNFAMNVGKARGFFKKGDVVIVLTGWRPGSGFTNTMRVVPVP
Protocol: Pyruvate Kinase Activity Enzyme Assay. Recombinant Enzyme. A continuous, enzyme-coupled assay, which uses lactate dehydrogenase (LDH) and measures the depletion of NADH via absorbance at 340 nm was utilized to determine the pyruvate kinase activity. For AC50 measurements (concentration of activator necessary to achieve half-maximal activation) with ML-265, assays were performed in 96-well format using 200 μL/well assay volume with final concentrations of 20 nM human recombinant PKM2 (Sigma, SAE0021), differing concentrations of ML-265, 0.5 mM PEP, 1 mM ADP, 0.2 mM NADH, and 8 U of lactate dehydrogenase (LDH) in an assay buffer of 50 mM Tris-HCl (pH 7.4), 100 mM KCl, and 5 mM MgCl2. The decrease in absorbance at 340 nm was monitored using a SPECTROstar Omega plate reader (BMG LABTECH Inc., Cary, NC, USA). Initial velocities were calculated with the MARS software. Data were normalized to DMSO (dimethyl sulfoxide)-treated PKM2 activity.

| Compound | EC50 [1] | Emax [1] | EC50 (human recombinant PKM2) | Emax (human recombinant PKM2) | toxic effects on the retina (photoreceptors / retina; long-term) | photoreceptor apoptosis (photoreceptors / retina; small molecule activation of PKM2, models of outer retinal stress) | Max Activation (cell) [1] | Max Activation (human recombinant PKM2) |
| --- | --- | --- | --- | --- | --- | --- | --- | --- |
| Cn1c2cc([S+](C)[O-])sc2c2cnn(Cc3cccc(N)c3)c(=O)c21 (stereo not drawn) [ML-265] | – | – | – | – | without any toxic effects on the retina long-term | circumvents photoreceptor apoptosis | – | – |
| Cc1cccc(Cn2ncc3c4ccc(Oc5ncnc6[nH]ncc56)cc4n(C)c3c2=O)n1 [Example 65, 7-((1H-pyrazolo[3,4-d]pyrimidin-4-yl)oxy)-5-methyl-3-((6-methylpyridin-2-yl)methyl)-3,5-dihydro-4H-pyridazino[4,5-b]indol-4-one] | 115 nM | 262% | 43 nM | 191% | – | – | – | – |
| Cc1cccc(Cn2ncc3c4ccc(Oc5cccc(Cl)n5)cc4n(C)c3c2=O)n1 [Example 67, 7-((6-chloropyridin-2-yl)oxy)-5-methyl-3-((6-methylpyridin-2-yl)methyl)-3,5-dihydro-4H-pyridazino[4,5-b]indol-4-one] | 147 nM | 290% | 49 nM | 277% | – | – | – | – |
| Cc1cccc(Cn2ncc3c4ccc(Oc5cccc(F)n5)cc4n(C)c3c2=O)n1 [Example 66, 7-((6-fluoropyridin-2-yl)oxy)-5-methyl-3-((6-methylpyridin-2-yl)methyl)-3,5-dihydro-4H-pyridazino[4,5-b]indol-4-one] | 121 nM | 323% | 36 nM | 154% | – | – | – | – |
| Cc1cccc(Cn2ncc3c4ccc(Oc5nccc6[nH]ncc56)cc4n(C)c3c2=O)n1 [Example 64, 7-((1H-pyrazolo[4,3-c]pyridin-4-yl)oxy)-5-methyl-3-((6-methylpyridin-2-yl)methyl)-3,5-dihydro-4H-pyridazino[4,5-b]indol-4-one] | 73 nM | 272% | 69 nM | 165% | – | – | – | – |
| 3-((1H-pyrazol-3-yl)methyl)-7-41H-pyrazolo[4,3-c]pyridin-4-yl)oxy)-5-methyl-3,5-dihydro-4H-pyridazino[4,5-b]indol-4-one [Example 87] | 95 nM | – | 50 nM | – | – | – | 317% | 270% |
| Cn1ncc2c3ccc(Oc4cccc(Cl)n4)cc3n(C)c2c1=O [Example 81, 7-((6-chloropyridin-2-yl)oxy)-3,5-dimethyl-3,5-dihydro-4H-pyridazino[4,5-b]indol-4-one] | 259 nM | 259% | 49 nM | 336% | – | – | – | – |
| Cn1c2cc(O)ccc2c2cnn(Cc3cccc(N)c3)c(=O)c21 [Example 15, 3-(3-Aminobenzyl)-7-hydroxy-5-methyl-3,5-dihydro-4H-pyridazino[4,5-b]indol-4-one] | 124 nM | 296% | 40 nM | 254% | – | – | – | – |

More lines, main results first:

| EC50 [1] | Emax [1] | EC50 (human recombinant PKM2) | Emax (human recombinant PKM2) | Compound | toxic effects on the retina (photoreceptors / retina; long-term) | photoreceptor apoptosis (photoreceptors / retina; small molecule activation of PKM2, models of outer retinal stress) | Max Activation (cell) [1] | Max Activation (human recombinant PKM2) |
| --- | --- | --- | --- | --- | --- | --- | --- | --- |
| 22 nM | 309% | 527 nM | 267% | CSc1ccc2c3cnn(Cc4ccccc4)c(=O)c3n(C)c2c1 [Example 4, 3-Benzyl-5-methyl-7-(methylthio)-3,5-dihydro-4H-pyridazino[4,5-b]indol-4-one] | – | – | – | – |
| 54 nM | 334% | 67 nM | 243% | Cc1cccc(Cn2ncc3c4cc(Oc5ccc6[nH]ncc6n5)ccc4n(C)c3c2=O)n1 [Example 60, 8-((1H-pyrazolo[4,3-b]pyridin-5-yl)oxy)-5-methyl-3-((6-methylpyridin-2-yl)methyl)-3,5-dihydro-4H-pyridazino[4,5-b]indol-4-one] | – | – | – | – |
| 13 nM | 295% | 192 nM | 226% | Cn1c2cc([S+](C)[O-])ccc2c2cnn(Cc3ccccc3)c(=O)c21 (stereo not drawn) [Example 5, 3-Benzyl-5-methyl-7-(methylsulfinyl)-3,5-dihydro-4H-pyridazino[4,5-b]indol-4-one] | – | – | – | – |
| 37 nM | – | 15 nM | – | COc1cc2c(cc1F)c1cnn(Cc3cccc(N)c3)c(=O)c1n2C [Example 53, 3-(3-aminobenzyl)-8-fluoro-7-methoxy-5-methyl-3,5-dihydro-4H-pyridazino[4,5-b]indol-4-one] | – | – | 229% | 199% |
| 67 nM | 229% | 15 nM | 199% | COc1cc2c(cc1F)c1cnn(Cc3cccc(N)c3)c(=O)c1n2C [Example 20, 3-(3-aminobenzyl)-8-fluoro-7-methoxy-5-methyl-3,5-dihydro-4H-pyridazino[4,5-b]indol-4-one] | – | – | – | – |
| 25 nM | 324% | 117 nM | 271% | COc1ccc2c3cnn(Cc4cccc(N)c4)c(=O)c3n(C)c2c1 [Example 8, 3-(3-Aminobenzyl)-7-methoxy-5-methyl-3,5-dihydro-4H-pyridazino[4,5-b]indol-4-one] | – | – | – | – |
| 33 nM | 288% | 22 nM | 196% | COc1cccc2c3cnn(Cc4cccc(N)c4)c(=O)c3n(C)c12 [Example 23, 3-(3-aminobenzyl)-6-methoxy-5-methyl-3,5-dihydro-4H-pyridazino[4,5-b]indol-4-one] | – | – | – | – |
| 72 nM | 222% | 55 nM | 206% | Cn1c2cc(Oc3cccc(O)n3)ccc2c2cnn(Cc3ccccc3F)c(=O)c21 [Example 72, 3-(2-fluorobenzyl)-7-((6-hydroxypyridin-2-yl)oxy)-5-methyl-3,5-dihydro-4H-pyridazino [4,5-b]indol-4-one] | – | – | – | – |
| 18 nM | 355% | 63 nM | 222% | Cn1c2cc([S+](C)[O-])ccc2c2cnn(Cc3cccc(N)c3)c(=O)c21 (stereo not drawn) [Example 7, 3-(3-Aminobenzyl)-5-methyl-7-(methylsulfinyl)-3,5-dihydro-4H-pyridazino[4,5-b]indol-4-one] | – | – | – | – |
